Reference: publication PMC7037862, “Tricyclic Nucleobase Analogs and Their Ribosides as Substrates and Inhibitors of Purine-Nucleoside Phosphorylases III. Aminopurine Derivatives” (Molecules, 2020)
Positions count from the first letter of the chain named. In names and notes the source's numbering stands. Where two headings read alike, the source gives them in different places.

Assays:
E. coli PNP-wt [1] = biological target: T1, E. coli PNP-wt (Escherichia coli, UniProt P0ABP8); assay: Enzymatic ribosylation with α-D-ribose-1-phosphate, E. coli PNP wild type; type: biochemical; settings: for Vmax (Relative): ribosylation, relative to guanine ribosylation rate (=100)
T1 construct: made in house; host or cells: E. coli
T1 sequence (P0ABP8 2-239 limits assumed): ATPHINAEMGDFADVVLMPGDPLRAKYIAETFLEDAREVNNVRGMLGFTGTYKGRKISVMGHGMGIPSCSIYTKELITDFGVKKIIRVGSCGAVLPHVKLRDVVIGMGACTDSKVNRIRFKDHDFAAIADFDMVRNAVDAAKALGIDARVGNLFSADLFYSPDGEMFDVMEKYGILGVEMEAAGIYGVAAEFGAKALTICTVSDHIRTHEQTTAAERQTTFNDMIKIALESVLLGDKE
Procedure: (§1) Recombinant E. coli PNP, calf spleen PNP, and their mutated forms were expressed in E. coli and purified according to the procedures described earlier. Enzyme concentrations were calculated per monomer.
(§2) Enzymatic ribosylation reactions were carried out in 1 mL cuvettes (pathlength 4 mm) in ~50 mM HEPES buffer, pH 7.3, using 0.5 mM R1P as a ribose source. Reactions were followed fluorimetrically (see Section 2.4). On a larger scale (2–4 mg), the reactions were run in Eppendorf tubes, volume 2–3 mL, using either R1P (3–10 mM) or 7-methylguanosine as ribose sources. Products were purified by semi-preparative HPLC, concentrated and the final solutions kept frozen. Their structure has been confirmed by NMR (see Section 2.4 and Supplementary Materials) and by MS: comp. 3: m/z = 292.10385, comp. 4: m/z = 292.10400, comp. 5: m/z = 292.10398, calculated for C12H13N5O4 + H: 292.10403. Phosphorolysis reactions were run in 40–50 mM phosphate buffer, pH 7.0 or 6.5, and followed spectrally or fluorimetrically. Kinetic parameters were calculated by standard methods.

calf spleen PNP (wt) = biological target: T2, calf spleen PNP (wt) (Bos taurus, UniProt P55859); assay: Enzymatic ribosylation with α-D-ribose-1-phosphate, calf PNP wild type; type: biochemical; settings: for Vmax (Relative): ribosylation, relative to guanine ribosylation rate (=100); for ribosylation activity: trimeric calf spleen PNP, wild type
T2 construct: made in house; host or cells: E. coli
T2 sequence (P55859 1-289): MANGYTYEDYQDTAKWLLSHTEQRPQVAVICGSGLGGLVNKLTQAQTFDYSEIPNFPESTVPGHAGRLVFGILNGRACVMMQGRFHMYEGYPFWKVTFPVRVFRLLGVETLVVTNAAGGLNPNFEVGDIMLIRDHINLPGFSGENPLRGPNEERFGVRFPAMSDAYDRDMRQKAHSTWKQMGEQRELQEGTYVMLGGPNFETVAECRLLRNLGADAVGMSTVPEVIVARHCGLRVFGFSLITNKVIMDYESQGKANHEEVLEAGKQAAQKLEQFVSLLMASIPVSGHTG
Procedure: as §1, §2

calf PNP N243D = biological target: T3, calf PNP N243D (Bos taurus, UniProt P55859, N243D); assay: Enzymatic ribosylation with α-D-ribose-1-phosphate, calf PNP N243D mutant; type: biochemical; settings: for Vmax (Relative): ribosylation, relative to guanine ribosylation rate (=100)
T3 construct: made in house; host or cells: E. coli
T3 sequence (P55859 1-289 N243D): T2 sequence (P55859 1-289) with N243D
Procedure: as §1, §2

[2] = Ionization constants (pKa), determined spectrophotometrically; type: physicochemical; settings: phosphate and/or acetate buffers
Procedure: Fluorescence spectra were measured on a Varian Eclipse instrument (Varian Corp., Palo Alto, CA, USA), and UV absorption kinetic experiments were performed on a Cary 5000 (Varian Corp., Palo Alto, CA, USA) thermostated spectrophotometer. Fluorescence yields were determined relative to tryptophan (0.15) or 1,N^6-ethenoadenosine in water (0.56, see ref. [2]). Emission spectra were measured in semi-micro cuvettes, pathlength 4 mm, to diminish the inner-filter effect. Typical spectral resolution was 2.5 nm. The ionization constants (pKa values) were determined spectrophotometrically using 20–50 mM phosphate and/or acetate buffers.

E. coli PNP D204N = biological target: T4, E. coli PNP D204N (Escherichia coli, UniProt P0ABP8, D205N); assay: Enzymatic ribosylation with α-D-ribose-1-phosphate, E. coli PNP D204N mutant; type: biochemical
T4 construct: made in house; host or cells: E. coli
Procedure: as §1, §2

E. coli PNP = biological target: T5, E. coli PNP (Escherichia coli, UniProt P0ABP8); assay: Fluorescence titration of E. coli PNP with ligand (enzyme-ligand complexes); type: binding; settings: in the presence of phosphate, 40 mM, pH 7, 20 °C
T5 construct: made in house; host or cells: E. coli
Procedure: Additionally, the fluorescence excitation spectra reveal fluorescence energy transfer (FRET) from the protein to the complexed ligand, since they show marked enhancement in the region 270–280 nm, where the tyrosine residues of the PNP molecule absorb (Figure 10).
Figure 10 Changes in fluorescence excitation (a) and emission spectra (b), observed during the titration of E. coli PNP with N^2,3-etheno-2-aminopurine (2). […] Spectra of the free ligand (3.5 μM) are given for comparison (points). Excitation spectrum of the protein, monitored at 310 nm, is given in black. Conditions: 40 mM phosphate, pH 7, at 20 °C. Concentration of protein was 10.1 μM (per subunit); that of the titrant was 0 to 3.5 μM. Lower panels: Fluorescence difference spectra, calculated from data presented on panels (a) and (b), (c) difference excitation (observed at 380 nm), (d) difference emission spectra, excited at 275 nm. Substrate concentrations are 0.17, 0.69, 1.37, 2.36 and 3.31 μM.
Etheno-tubercidine (6) forms somewhat similar fluorescent complexes with the E. coli PNP. As shown below, FRET from the protein to the ligand is evident in the excitation spectra (Figure 11), and the ligand fluorescence blue shifted from 415 to ca. 390 nm (Figure 11b,c). In this case more than 60% of protein fluorescence is quenched when protein binding sites are saturated (cf. Figure 11). […]

E. coli PNP S90A = biological target: T6, E. coli PNP S90A (Escherichia coli, UniProt P0ABP8, S91A); assay: Enzymatic ribosylation with α-D-ribose-1-phosphate, E. coli PNP S90A mutant; type: biochemical
T6 construct: made in house; host or cells: E. coli
Procedure: as §1, §2

calf PNP-wt = biological target: T7, calf PNP-wt (Bos taurus, UniProt P55859); assay: Enzymatic phosphorolysis of ribosides, calf PNP wild type; type: biochemical; settings: for Km: 40 mM phosphate buffer pH 7; for Vmax (Relative): relative to Vmax of guanosine phosphorolysis (=100)
T7 construct: made in house; host or cells: E. coli
T7 sequence (P55859 1-289): T2 sequence (P55859 1-289)
Procedure: as §1, §2

E. coli PNP-wt [3] = biological target: T1, E. coli PNP-wt; assay: Enzymatic phosphorolysis of ribosides, E. coli PNP wild type; type: biochemical; settings: for Vmax (Relative): relative to Vmax of guanosine phosphorolysis (=100)
Procedure: as §1, §2

[4] = substrate: c1cn2c(n1)ncc1nc[nH]c12; assay: Enzymatic ribosylation with α-D-ribose-1-phosphate, E. coli PNP wild type; type: biochemical
Procedure: as §1, §2

[5] = substrate: OC[C@H]1O[C@@H](n2ccn3c4ncnc-4cnc23)[C@H](O)[C@@H]1O; assay: Enzymatic phosphorolysis of ribosides, E. coli PNP wild type; type: biochemical; settings: other: phosphorolysis, E. coli PNP-wt, 40 mM phosphate buffer pH 7
Procedure: as §1, §2

[6] = substrate: OC[C@H]1O[C@@H](n2ccn3cc4ncnc-4nc23)[C@H](O)[C@@H]1O; assay: as above; type: biochemical; settings: other: phosphorolysis, E. coli PNP-wt, 40 mM phosphate buffer pH 7
Procedure: as §1, §2

[7] = substrate: c1cn2c(n1)ncc1nc[nH]c12; assay: Enzymatic ribosylation with α-D-ribose-1-phosphate, calf PNP wild type; type: biochemical; settings: other: ribosylation by R1P, calf-wt PNP, 40 mM HEPES pH 7
Procedure: as §1, §2

[8] = substrate: OC[C@H]1O[C@@H](n2ccn3c4ncnc-4cnc23)[C@H](O)[C@@H]1O; assay: Enzymatic phosphorolysis of ribosides, calf PNP wild type; type: biochemical; settings: other: phosphorolysis, calf PNP-wt, 40 mM phosphate buffer pH 7
Procedure: as §1, §2

[9] = substrate: c1cn2c(n1)ncc1nc[nH]c12; assay: Enzymatic ribosylation with α-D-ribose-1-phosphate, calf PNP N243D mutant; type: biochemical; settings: other: ribosylation by R1P, 40 mM HEPES pH 7
Procedure: as §1, §2

[10] = ribosylation by R1P, 40 mM HEPES pH 7
[11] = acidic dissociation, read-out: pKa (acidic dissociation of the imidazole proton)
[12] = protonation, read-out: pKa (protonation)
[13] = ribosylation, relative to guanine ribosylation rate (=100)

## c1cn2cc3nc[nH]c3nc2n1 [Compound 1, 1,N^2-etheno-2-aminopurine]
E. coli PNP-wt [1]
  Ribosylation Site: mostly N^2
  Vmax (Relative): ~1
E. coli PNP-wt [1]; [10]
  Km: < 10 µM
Calf spleen PNP (wt); ribosylation by R1P, calf-wt PNP, 40 mM HEPES pH 7
  Km: nr
Calf spleen PNP (wt); calf-wt PNP
  Vmax (Relative): < 0.1
Calf spleen PNP (wt)
  ribosylation activity: apparently inactive
Calf PNP N243D; calf PNP N243D
  Vmax (Relative): traces
[2]; [11]
  pKa: 8.2
[2]; [12]
  pKa: 5.6

## c1cn2c(n1)ncc1nc[nH]c12 [Compound 2, N^2,3-etheno-2-aminopurine]
E. coli PNP-wt [1]
  Ribosylation Site: predominantly N^2
  Vmax (Relative): 20
E. coli PNP D204N
  Ribosylation Site: predominantly N^2
E. coli PNP D204N; [10]
  Km: 12 µM
E. coli PNP D204N; [13]
  Vmax (Relative): 30
E. coli PNP
  quenching of the protein fluorescence at 305 nm: moderate quenching
Calf spleen PNP (wt); calf-wt PNP
  Ribosylation Site: predominantly N^2
  Vmax (Relative): ~5
Calf spleen PNP (wt)
  ribosylation activity: moderate rate
Calf PNP N243D; calf PNP N243D
  Ribosylation Site: predominantly N^2
  Vmax (Relative): 29
Calf PNP N243D; calf PNP mutated in the active site (N243D)
  ribosylation activity: fairly rapidly ribosylated
[2]; [11]
  pKa: ~9.5
[2]; [12]
  pKa: 5
E. coli PNP S90A
  Ribosylation Site: predominantly N^2
E. coli PNP S90A; [10]
  Km: ~20 µM
E. coli PNP S90A; [13]
  Vmax (Relative): 23

## OC[C@H]1O[C@@H](n2cnc3cn4ccnc4nc32)[C@H](O)[C@@H]1O [Compound 3, 1,N^2-etheno-2-aminopurine-N^9-β-D-riboside]
Calf PNP-wt
  Km: nr
  Vmax (Relative): <0.1
E. coli PNP-wt [3]; 40 mM phosphate buffer pH 7
  Km: nr
E. coli PNP-wt [3]
  Vmax (Relative): <1

## OC[C@H]1O[C@@H](n2ccn3cc4ncnc-4nc23)[C@H](O)[C@@H]1O [Compound 4, 1,N^2-etheno-2-aminopurine-N^2-β-D-riboside]
Calf PNP-wt
  Km: nr
  Vmax (Relative): <0.1
E. coli PNP-wt [3]
  Vmax (Relative): 4
[2]; [12]
  pKa: ~6.3

## OC[C@H]1O[C@@H](n2ccn3c4ncnc-4cnc23)[C@H](O)[C@@H]1O [Compound 5, N^2,3-etheno-2-aminopurine-N^2-β-D-riboside]
Calf PNP-wt
  Vmax (Relative): 3
E. coli PNP-wt [3]
  Vmax (Relative): 115
[2]; [12]
  pKa: 6.15

B1: E. coli PNP (wt) (Escherichia coli K-12) (protein)
chain: T1 sequence (P0ABP8 2-239 limits assumed)
notes: made in house; host or cells: E. coli
[4]; other: E. coli PNP and its mutated forms
  Km: 10 µM
[4]; other: ribosylation by R1P, E. coli-wt PNP, 40 mM HEPES pH 7, pH 7.0
  Km: 11 µM

B2: E. coli PNP-wt (Escherichia coli K-12) (protein)
chain: T1 sequence (P0ABP8 2-239 limits assumed)
notes: as for B1
[5]
  Km: ~ 20 μM
[6]
  Km: 47 µM

B3: calf spleen PNP (wt) (Bos taurus) (protein)
chain: T2 sequence (P55859 1-289)
notes: as for B1
[7]
  Km: ~8 µM

B4: calf PNP-wt (Bos taurus) (protein)
chain: T2 sequence (P55859 1-289)
notes: as for B1
[8]
  Km: 4.6 µM

B5: calf PNP N243D (Bos taurus; N243D) (protein)
chain: T2 sequence (P55859 1-289) with N243D
notes: as for B1
[9]
  Km: 110 µM
